The test system of data set [1] is 3396 human breast carcinoma cells. Put plainly: In vitro cytotoxicity, XTT, 3396 cells. Format: cell-based. The conditions noted are these: 3396 breast, exposed 1 hr, washed, XTT 96 hr later. The procedure: (§1) In vitro cytotoxicity experiments were performed to compare the activities of auristatin E (29a) and drugs of this invention. 3396 and Karpas cells were exposed to the drug for 1 and 2 hr respectively. The cells were washed, and cytotoxicity was determined 96 hr later using XTT to measure mitochondrial integrity.
Background: Tetrazolium assays rely on reduction of a dye to a coloured formazan, in cell work by metabolically active cells.

For a further data set, the system named is Karpas 299 (ALCL). The data set can be described thus: In vitro cytotoxicity, XTT, Karpas 299 cells. Format: cell-based. The conditions noted are these: exposed 2 hr, washed, XTT 96 hr later. The procedure: as §1
Data set [2] has as its system purified esterases from rhesus monkey livers. Put plainly: Exposure to purified liver esterases (rhesus monkey). Format: in vitro ADME. To be noted: prolonged exposure.
Another data set is described as follows: Stability in human serum. To be noted: 120 hours incubation at 37 C. Format: in vitro ADME.
Data set [3] concerns purified esterases from human livers. Put plainly: Exposure to purified liver esterases (human). Format: in vitro ADME. The conditions noted are these: prolonged exposure.
Data set [4] concerns Daudi Burkitt's lymphoma cells. Put plainly: In vitro cytotoxicity, 3H-thymidine incorporation, Daudi cells. Format: cell-based. The conditions noted are these: for IC50: Daudi Burkitt's lymphoma, exposed 1-2 hours, 3H-thymidine incorporation 72 hours later. The procedure: (§2) To obtain the results shown in Table 4, the cells were exposed to drugs for 1-2 hours, and the cytotoxic effects were determined 72 hours later by the incorporation of ^3H-thymidine into DNA. Antigen expression was determined by flow cytometry and is expressed in terms of mean fluorescence intensity (MFI).
(§3) These figures show the cytotoxic effects of auristatin E and auristatin E-containing conjugates on L2987 human lung adenocarcinoma cells (FIG. 19A); and various hematologic cell lines treated with AC10-S-40a (FIG. 19B). In all assays, cells were exposed to the drugs for 2 hours, washed, and the cytotoxic activities were measured 72 hours later using ^3H-thymidine incorporation.
A general note: Uptake of a labelled nucleoside into DNA is a usual measure of proliferation.

The test system of data set [5] is L2987 human lung adenocarcinoma cells. Put plainly: In vitro cytotoxicity, 3H-thymidine incorporation, L2987 cells. To be noted: for IC50: L2987 lung, exposed 1-2 hours, 3H-thymidine incorporation 72 hours later. Format: cell-based. The procedure: as §2
(§4) The cytotoxic effects of the mAb-S-36 conjugates on L2987 human lung adenocarcinoma cells (strongly BR96 antigen positive, weakly S2C6 antigen positive) and on Kato III human gastric carcinoma cells, (strongly BR96 antigen positive, S2C6 antigen negative) are shown in FIGS. 18A, 18B and 18C. These figures show the in vitro cytotoxicity of drugs and mAb-drug conjugates on (FIG. 18A) and (FIG. 18B) L2987 human lung adenoma cells, and (FIG. 18A) and (FIG. 18C) Kato III human gastric carcinoma cells. L2987 cells are positive for the antigens recognized by BR96 (LeY) and S2C6 (CD40), but express the LeY antigen at higher levels. Kato III cells are positive for the LeY antigen and negative for CD40. Cells were exposed to the conjugates for 2 hours, washed, and the cytotoxic effects were determined 3 days later using a thymidine incorporation assay.
as §3

The next data set relates to L428 Hodgkin's lymphoma. Put plainly: In vitro cytotoxicity, 3H-thymidine incorporation, L428 cells. Format: cell-based. The conditions noted are these: 3H-thymidine incorporation 72 hours later. The procedure:
as §2, §3

Another data set has as its system L540 Hodgkin's lymphoma. The data set can be described thus: In vitro cytotoxicity, 3H-thymidine incorporation, L540 cells. Format: cell-based. The conditions noted are these: 3H-thymidine incorporation 72 hours later. The procedure:
as §2, §3

In data set [6] the test system is Kato III human gastric carcinoma cells. Put plainly: In vitro cytotoxicity, 3H-thymidine incorporation, Kato III cells. Format: cell-based. The conditions noted are these: exposed 1-2 hours, 3H-thymidine incorporation 72 hours later. The procedure: as §2, §4
The next data set concerns IM-9 (Multiple myeloma). The data set can be described thus: In vitro cytotoxicity, 3H-thymidine incorporation, IM-9 cells. The conditions noted are these: exposed 1-2 hours, 3H-thymidine incorporation 72 hours later. Format: cell-based. The procedure:
as §2, §3

The next data set relates to SKBR3 (breast). Put plainly: In vitro cytotoxicity, 3H-thymidine incorporation, SKBR3 cells. The conditions noted are these: 3H-thymidine incorporation 72 hours later. Format: cell-based. The procedure: as §2
The subject of data set [7] is purified esterases from rabbit livers. Put plainly: Exposure to purified liver esterases (rabbit). Format: in vitro ADME. The conditions noted are these: prolonged exposure.
Data set [8] deals with Karpas anaplastic large cell lymphoma. Put plainly: In vitro cytotoxicity, 3H-thymidine incorporation, Karpas cells. Format: cell-based. To be noted: Karpas ALCL; exposed 1-2 hours, 3H-thymidine incorporation 72 hours later. The procedure:
as §2, §3

The subject of data set [9] is purified esterases from guinea pig livers. The data set can be described thus: Exposure to purified liver esterases (guinea pig). Format: in vitro ADME. To be noted: prolonged exposure.
Another data set deals with AU565 (breast). The data set can be described thus: In vitro cytotoxicity, 3H-thymidine incorporation, AU565 cells. Format: cell-based. To be noted: exposed 1-2 hours, 3H-thymidine incorporation 72 hours later. The procedure:
as §2

Setting [10] is: Homo sapiens, Breast carcinoma cell.

Each structure is given as a SMILES string. Where a SMILES comes first, the peptide text is derived from it. [ ]: non-standard residue; d: D form. The star is where a group is joined. Dolaproine = CO[C@@H]([C@@H]1CCCN1)[C@@H](C)C(=O)O; Dil = CC[C@H](C)[C@H](NC)[C@@H](CC(=O)O)OC; NMe2Val = CC(C)[C@@H](C(=O)*)N(C)C; dPhe(ol) = N[C@@H](CO)Cc1ccccc1; Phe(ol) = N[C@H](CO)Cc1ccccc1

As usually defined, the IC50 is the concentration at which inhibition is half-maximal. Turning to `CC[C@H](C)[C@@H]([C@@H](CC(=O)N1CCC[C@H]1[C@H](OC)[C@@H](C)C(=O)N[C@H](COC(=O)c1ccc(C(C)=O)cc1)Cc1ccccc1)OC)N(C)C(=O)[C@@H](NC(=O)[C@H](C(C)C)N(C)C)C(C)C` [Compound 47], the IC50 is 0.35 nM in data set [1] (setting [10]) and 0.075 nM in the data set on Karpas 299 (ALCL) (Homo sapiens).
Consider `CC[C@H](C)[C@@H]([C@@H](CC(=O)N1CCC[C@H]1[C@H](OC)[C@@H](C)C(=O)N[C@@H](CO)Cc1ccccc1)OC)N(C)C(=O)[C@@H](NC(=O)[C@H](C(C)C)N(C)C)C(C)C` [Compound 33] (NMe2Val-V[Dil][Dolaproine][dPhe(ol)]), for which, in data set [1] (setting [10]), the IC50 amounted to 70 nM.
As to `CC[C@H](C)[C@@H]([C@@H](CC(=O)N1CCC[C@H]1[C@H](OC)[C@@H](C)C(=O)N[C@@H](C)[C@H](OC(=O)c1ccc(C(C)=O)cc1)c1ccccc1)OC)N(C)C(=O)[C@@H](NC(=O)[C@H](C(C)C)N(C)C)C(C)C` [Compound 39a, 4-acetyl-benzoic Ester of Auristatin E], the IC50 is 16 nM in [1]; 15 nM in data set [4]; 4 nM in the data set with Karpas 299 (ALCL); 0.9 nM in data set [5]; 13 nM in the data set on L428 Hodgkin's lymphoma (exposed 1-2 hours); 16 nM in the data set with L540 Hodgkin's lymphoma (exposed 1-2 hours). Besides, the IC50 in data set [6] was 5 nM; with IM-9 (Multiple myeloma), 50 nM; in the data set with SKBR3 (breast) (exposed 1-2 hours), 6 nM; in [8], 13 nM; in the data set with AU565 (breast) it was 6 nM. The “conversion to auristatin E (29a) by liver esterases” value in data set [2], in data set [3], in data set [7] and in data set [9] was “failed to demonstrate any conversion” throughout. Moreover, the “hydrolysis in human serum” value in “Stability in human serum” is reported as “no detectable hydrolysis”. The “times less cytotoxic than auristatin E (29a)” value in data set [4] (Daudi Burkitt's lymphoma cells) is reported as “approximately 17 times”. Moreover, the “cytotoxicity relative to auristatin E (29a)” value in data set [5] (L2981 cells (so in the source)) was “as cytotoxic as auristatin E (29a)”.
On to `CC[C@H](C)[C@@H]([C@@H](CC(=O)N1CCC[C@H]1[C@H](OC)[C@@H](C)C(=O)N[C@@H](COC(=O)c1ccc(C(C)=O)cc1)Cc1ccccc1)OC)N(C)C(=O)[C@@H](NC(=O)[C@H](C(C)C)N(C)C)C(C)C` [Compound 49], for which the 50% inhibitory concentration (IC50) in [1] (setting [10]) was determined as 34 nM.
Still for that read-out and setting: as for `CO[C@H]([C@@H](C)C(=O)N[C@H](C)[C@@H](OC(=O)CC(C)=O)c1ccccc1)[C@@H]1CCCN1C(=O)C[C@@H](OC)[C@H](C)N(C)C(=O)[C@@H](NC(=O)[C@H](C(C)C)N(C)C)C(C)C` [Compound 52, Acetoacetic Ester of Auristatin E], the figure is 20 nM; as for `CC[C@H](C)[C@@H]([C@@H](CC(=O)N1CCC[C@H]1[C@H](OC)[C@@H](C)C(=O)N[C@H](CO)Cc1ccccc1)OC)N(C)C(=O)[C@@H](NC(=O)[C@H](C(C)C)N(C)C)C(C)C` [Compound 32] (NMe2Val-V[Dil][Dolaproine][Phe(ol)]), 4.5 nM.
On the same count and under the same terms, next, `CC[C@H](C)[C@@H]([C@@H](CC(=O)N1CCC[C@H]1[C@H](OC)[C@@H](C)C(=O)N[C@H](COc1ccc(C(C)=O)cc1)Cc1ccccc1)OC)N(C)C(=O)[C@@H](NC(=O)[C@H](C(C)C)N(C)C)C(C)C` [Compound 58]: 2.5 nM.
As to `CC[C@H](C)[C@@H]([C@@H](CC(=O)N1CCC[C@H]1[C@H](OC)[C@@H](C)C(=O)N[C@H](C)[C@@H](O)c1ccccc1)OC)N(C)C(=O)[C@@H](NC(=O)[C@H](C(C)C)N(C)C)C(C)C` [Compound 29a, N,N-dimethyl-L-valyl-N-[(1S,2R)-4-[(2S)-2-[(1R,2R)-3-[[(1R,2S)-2-hydroxy-1-methyl-2-phenylethyl]amino]-1-methoxy-2-methyl-3-oxopropyl]-1-pyrrolidinyl]-2-methoxy-1-[(1S)-1-methylpropyl]-4-oxobutyl]-N-methyl-L-valinamide, reference compound], the IC50 in data set [1] (setting [10]) was 6 nM; in data set [4] (Homo sapiens), 0.9 nM; in the data set on Karpas 299 (ALCL) (Homo sapiens) it was 1.2 nM; in [5] (Homo sapiens), 1 nM; with L428 Hodgkin's lymphoma (Homo sapiens, L-428, exposed 1-2 hours) it was 1.5 nM; in the data set with L540 Hodgkin's lymphoma (Homo sapiens, L-540, exposed 1-2 hours), 1.5 nM. For the same compound, the IC50 in data set [6] (Homo sapiens) stood at 0.7 nM; with IM-9 (Multiple myeloma) (Homo sapiens) it was 3.5 nM; with SKBR3 (breast) (Homo sapiens, SK-BR-3, exposed 1-2 hours), 1.5 nM; in data set [8], 1.2 nM; with AU565 (breast) (Homo sapiens), 1.5 nM.
`CC[C@H](C)[C@@H]([C@@H](CC(=O)N1CCC[C@H]1[C@H](OC)[C@@H](C)C(=O)N[C@H](C)[C@@H](OC(=O)CCCCC(=O)c1ccccc1)c1ccccc1)OC)N(C)C(=O)[C@@H](NC(=O)[C@H](C(C)C)N(C)C)C(C)C` [Compound 50, 5-benzoylvaleric Ester of Auristatin E] registered an IC50 in [1] (setting [10]) of 3 nM.

The values above are taken from patent US7256257B2, “Pentapeptide compounds and uses related thereto” (priority 2001, dated 2007).
